Earlier results in patent publication US20100113583A1, “COMBINATION THERAPIES FOR THE TREATMENT OF OBESITY” (priority 2008, published 2010).

Columns and labels:
[1] = for weight loss of body weight for drug compared with placebo: literature studies

SMILES	clinically significant side effect / limitation of clinical use	weight loss of body weight for drug compared with placebo [1]	efficacy in clinical use ([1]; clinical use as weight loss drug)
CCN[C@@H](C)Cc1cccc(C(F)(F)F)c1 [dexfenfluramine]	suspected heart valvulopathy	about 5%	
CCNC(C)Cc1cccc(C(F)(F)F)c1 (stereo not drawn) [fenfluramine]	caused heart-valve complications		
CCCCCCCCCCC[C@@H](C[C@@H]1OC(=O)[C@H]1CCCCCC)OC(=O)[C@H](CC(C)C)NC=O [orlistat]	GI side effects	about 5%	
CC(C)(N)Cc1ccccc1 [phentermine]		about 5%	limited efficacy
CC(C)CC(N(C)C)C1(c2ccc(Cl)cc2)CCC1 (stereo not drawn) [sibutramine]	can cause hypertension	about 5%	
